Measured values as given in PubChem BioAssay (NCI).
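How tested: cells in 96-well plates exposed to compound for 48 hours at five concentrations. At the TGI there is no net growth.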

Legend:
Test in all cases: inhibition of tumour cell growth, NCI panel, 48 h
MOLT-4 leukemia = tested on: MOLT-4 leukemia
COLO 205 colon = tested on: COLO 205 colon
HT29 colon = tested on: HT29 colon
KM12 colon = tested on: KM12 colon
MDA-MB-231 breast = tested on: MDA-MB-231 breast
MDA-MB-435 = tested on: MDA-MB-435
TK-10 renal = tested on: TK-10 renal
OVCAR-3 ovarian = tested on: OVCAR-3 ovarian
786-0 renal = tested on: 786-0 renal
ACHN renal = tested on: ACHN renal
DU-145 prostate = tested on: DU-145 prostate
SF-268 CNS = tested on: SF-268 CNS
UACC-257 melanoma = tested on: UACC-257 melanoma
HCC-2998 colon = tested on: HCC-2998 colon
HCT-15 colon = tested on: HCT-15 colon
BT-549 breast = tested on: BT-549 breast
HOP-62 NSCLC = tested on: HOP-62 NSCLC
NCI-H226 lung = tested on: NCI-H226 lung
U251 CNS = tested on: U251 CNS
SNB-75 CNS = tested on: SNB-75 CNS

Compound: Cc1cc(NCC2CC/C(=C\C=C\c3ccccc3)C2=O)no1 (stereo not drawn)
- TGI (MOLT-4 leukemia): > 100 µM
- TGI (COLO 205 colon): > 100 µM
- TGI (HT29 colon): > 100 µM
- TGI (KM12 colon): > 100 µM
- TGI (MDA-MB-231 breast): > 100 µM
- TGI (MDA-MB-435): > 100 µM
- TGI (TK-10 renal): > 100 µM
- TGI (OVCAR-3 ovarian): > 100 µM
- TGI (786-0 renal): > 100 µM
- TGI (ACHN renal): > 100 µM
- TGI (DU-145 prostate): > 100 µM
- TGI (SF-268 CNS): > 100 µM
- TGI (UACC-257 melanoma): > 100 µM
- TGI (HCC-2998 colon): > 100 µM
- TGI (HCT-15 colon): > 100 µM
- TGI (BT-549 breast): > 100 µM
- TGI (HOP-62 NSCLC): > 100 µM
- TGI (NCI-H226 lung): > 100 µM
- TGI (U251 CNS): > 100 µM

Compound: CC1(C)OC(=O)CC12CCN(Cc1ccccc1)CC2
- TGI (MOLT-4 leukemia): > 100 µM
- TGI (SNB-75 CNS): > 100 µM
- TGI (COLO 205 colon): > 100 µM
- TGI (HT29 colon): > 100 µM
- TGI (MDA-MB-231 breast): > 100 µM
- TGI (MDA-MB-435): > 100 µM
- TGI (TK-10 renal): > 100 µM
- TGI (OVCAR-3 ovarian): > 100 µM
- TGI (786-0 renal): > 100 µM
- TGI (ACHN renal): > 100 µM
- TGI (DU-145 prostate): > 100 µM
- TGI (SF-268 CNS): > 100 µM
- TGI (UACC-257 melanoma): > 100 µM
- TGI (HCT-15 colon): > 100 µM
- TGI (BT-549 breast): > 100 µM
- TGI (HOP-62 NSCLC): > 100 µM
- TGI (NCI-H226 lung): > 100 µM
- TGI (U251 CNS): > 100 µM

Compound: Cc1n[nH]c(=O)n1/N=C/c1cccnc1
- TGI (MOLT-4 leukemia): > 100 µM
- TGI (COLO 205 colon): > 100 µM
- TGI (HT29 colon): > 100 µM
- TGI (KM12 colon): > 100 µM
- TGI (MDA-MB-231 breast): > 100 µM
- TGI (MDA-MB-435): > 100 µM
- TGI (TK-10 renal): > 100 µM
- TGI (OVCAR-3 ovarian): > 100 µM
- TGI (786-0 renal): > 100 µM
- TGI (ACHN renal): > 100 µM
- TGI (DU-145 prostate): > 100 µM
- TGI (SF-268 CNS): > 100 µM
- TGI (UACC-257 melanoma): > 100 µM
- TGI (HCC-2998 colon): > 100 µM
- TGI (HCT-15 colon): > 100 µM
- TGI (BT-549 breast): > 100 µM
- TGI (HOP-62 NSCLC): > 100 µM
- TGI (NCI-H226 lung): > 100 µM
- TGI (U251 CNS): > 100 µM

Compound: COc1ccc(CCN(C)C(=O)CC(C#N)(c2ccccc2)c2ccc(OC)c(OC)c2)cc1OC (stereo not drawn)
- TGI (MOLT-4 leukemia): > 100 µM
- TGI (SNB-75 CNS): > 100 µM
- TGI (COLO 205 colon): > 100 µM
- TGI (HT29 colon): > 100 µM
- TGI (KM12 colon): > 100 µM
- TGI (MDA-MB-231 breast): > 100 µM
- TGI (MDA-MB-435): > 100 µM
- TGI (TK-10 renal): > 100 µM
- TGI (OVCAR-3 ovarian): > 100 µM
- TGI (786-0 renal): > 100 µM
- TGI (ACHN renal): > 100 µM
- TGI (DU-145 prostate): > 100 µM
- TGI (SF-268 CNS): > 100 µM
- TGI (UACC-257 melanoma): > 100 µM
- TGI (HCT-15 colon): > 100 µM
- TGI (BT-549 breast): > 100 µM
- TGI (HOP-62 NSCLC): > 100 µM
- TGI (NCI-H226 lung): > 100 µM
- TGI (U251 CNS): > 100 µM

Compound: COC(=O)c1c(C(=O)OC)c(C(c2ccccc2)c2ccccc2)n(-c2ccccc2)c1Cl
- TGI (MOLT-4 leukemia): 8.1 µM
- TGI (COLO 205 colon): > 10 µM
- TGI (HT29 colon): > 10 µM
- TGI (KM12 colon): > 10 µM
- TGI (MDA-MB-231 breast): > 10 µM
- TGI (MDA-MB-435): > 10 µM
- TGI (TK-10 renal): > 10 µM
- TGI (OVCAR-3 ovarian): > 10 µM
- TGI (786-0 renal): > 10 µM
- TGI (ACHN renal): > 10 µM
- TGI (DU-145 prostate): > 10 µM
- TGI (SF-268 CNS): > 10 µM
- TGI (UACC-257 melanoma): > 10 µM
- TGI (HCC-2998 colon): > 10 µM
- TGI (HCT-15 colon): > 10 µM
- TGI (BT-549 breast): > 10 µM
- TGI (HOP-62 NSCLC): > 10 µM
- TGI (NCI-H226 lung): > 10 µM
- TGI (U251 CNS): > 10 µM

Compound: O=C1CCSc2c(cnc3ccccc23)N1
- TGI (MOLT-4 leukemia): > 100 µM
- TGI (SNB-75 CNS): > 100 µM
- TGI (COLO 205 colon): > 100 µM
- TGI (HT29 colon): > 100 µM
- TGI (KM12 colon): > 100 µM
- TGI (MDA-MB-231 breast): > 100 µM
- TGI (MDA-MB-435): > 100 µM
- TGI (TK-10 renal): > 100 µM
- TGI (OVCAR-3 ovarian): > 100 µM
- TGI (786-0 renal): > 100 µM
- TGI (ACHN renal): > 100 µM
- TGI (DU-145 prostate): > 100 µM
- TGI (SF-268 CNS): > 100 µM
- TGI (UACC-257 melanoma): > 100 µM
- TGI (HCT-15 colon): > 100 µM
- TGI (BT-549 breast): > 100 µM
- TGI (HOP-62 NSCLC): > 100 µM
- TGI (NCI-H226 lung): > 100 µM
- TGI (U251 CNS): > 100 µM

Compound: CC(C)N(c1cc2c(cc1F)c(=O)c(C(=O)O)cn2-c1ccc(N2CCN(C)CC2)cn1)C(C)C
- TGI (MOLT-4 leukemia): > 100 µM
- TGI (SNB-75 CNS): > 100 µM
- TGI (COLO 205 colon): > 100 µM
- TGI (HT29 colon): > 100 µM
- TGI (KM12 colon): > 100 µM
- TGI (MDA-MB-231 breast): > 100 µM
- TGI (MDA-MB-435): > 100 µM
- TGI (TK-10 renal): > 100 µM
- TGI (OVCAR-3 ovarian): > 100 µM
- TGI (786-0 renal): > 100 µM
- TGI (DU-145 prostate): > 100 µM
- TGI (SF-268 CNS): > 100 µM
- TGI (UACC-257 melanoma): > 100 µM
- TGI (HCT-15 colon): > 100 µM
- TGI (BT-549 breast): > 100 µM
- TGI (HOP-62 NSCLC): > 100 µM
- TGI (NCI-H226 lung): > 100 µM
- TGI (U251 CNS): > 100 µM

Compound: COC(=O)c1cc(C#N)[nH]c1-c1cccs1
- TGI (MOLT-4 leukemia): > 100 µM
- TGI (SNB-75 CNS): > 100 µM
- TGI (COLO 205 colon): > 100 µM
- TGI (KM12 colon): > 100 µM
- TGI (MDA-MB-231 breast): > 100 µM
- TGI (MDA-MB-435): > 100 µM
- TGI (OVCAR-3 ovarian): > 100 µM
- TGI (786-0 renal): > 100 µM
- TGI (ACHN renal): > 100 µM
- TGI (DU-145 prostate): > 100 µM
- TGI (SF-268 CNS): > 100 µM
- TGI (UACC-257 melanoma): > 100 µM
- TGI (HCC-2998 colon): > 100 µM
- TGI (HCT-15 colon): > 100 µM
- TGI (BT-549 breast): > 100 µM
- TGI (HOP-62 NSCLC): > 100 µM
- TGI (NCI-H226 lung): > 100 µM
- TGI (U251 CNS): > 100 µM

Compound: COC(=O)/C=C(\S/C(=C(/c1ccc(OC)cc1)n1cc(C(=O)OC)c(C(=O)OC)n1)c1ccc(OC)cc1)C(=O)OC
- TGI (MOLT-4 leukemia): > 100 µM
- TGI (SNB-75 CNS): > 100 µM
- TGI (COLO 205 colon): 8.64 µM
- TGI (HT29 colon): 30.7 µM
- TGI (KM12 colon): > 100 µM
- TGI (MDA-MB-231 breast): > 100 µM
- TGI (MDA-MB-435): 34.2 µM
- TGI (TK-10 renal): 19 µM
- TGI (OVCAR-3 ovarian): 13.2 µM
- TGI (786-0 renal): 26.9 µM
- TGI (ACHN renal): 18.5 µM
- TGI (DU-145 prostate): 40.3 µM
- TGI (SF-268 CNS): 78.8 µM
- TGI (UACC-257 melanoma): 25.3 µM
- TGI (HCT-15 colon): 37.9 µM
- TGI (BT-549 breast): > 100 µM
- TGI (HOP-62 NSCLC): > 100 µM
- TGI (NCI-H226 lung): > 100 µM
- TGI (U251 CNS): > 100 µM

Compound: C=C(Cl)C(Br)(CBr)CCC(Br)C(C)(C)Br (stereo not drawn)
- TGI (MOLT-4 leukemia): > 10 µM
- TGI (SNB-75 CNS): > 10 µM
- TGI (COLO 205 colon): > 10 µM
- TGI (HT29 colon): > 10 µM
- TGI (KM12 colon): > 10 µM
- TGI (MDA-MB-231 breast): 3.38 µM
- TGI (MDA-MB-435): > 10 µM
- TGI (TK-10 renal): > 10 µM
- TGI (OVCAR-3 ovarian): > 10 µM
- TGI (786-0 renal): 3.08 µM
- TGI (ACHN renal): > 10 µM
- TGI (DU-145 prostate): > 10 µM
- TGI (SF-268 CNS): 6.25 µM
- TGI (HCC-2998 colon): > 10 µM
- TGI (BT-549 breast): > 10 µM
- TGI (HOP-62 NSCLC): > 10 µM
- TGI (NCI-H226 lung): > 10 µM
- TGI (U251 CNS): > 10 µM

Compound: CN1CCN(C(=S)N(C)C(=O)c2cccs2)CC1
- TGI (MOLT-4 leukemia): > 100 µM
- TGI (COLO 205 colon): > 100 µM
- TGI (HT29 colon): > 100 µM
- TGI (KM12 colon): > 100 µM
- TGI (MDA-MB-231 breast): > 100 µM
- TGI (MDA-MB-435): > 100 µM
- TGI (TK-10 renal): > 100 µM
- TGI (OVCAR-3 ovarian): > 100 µM
- TGI (786-0 renal): > 100 µM
- TGI (ACHN renal): > 100 µM
- TGI (DU-145 prostate): > 100 µM
- TGI (UACC-257 melanoma): > 100 µM
- TGI (HCC-2998 colon): > 100 µM
- TGI (HCT-15 colon): > 100 µM
- TGI (BT-549 breast): > 100 µM
- TGI (NCI-H226 lung): > 100 µM
- TGI (U251 CNS): > 100 µM
